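The compound was tested at five concentrations on cells cultured in 96-well plates, with a 48-hour exposure period. Here, GI50 denotes the concentration required for 50% inhibition of growth.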 The source made the active and inactive calls. Rule as the data show it: active = GI50 up to about 1.1 µM and inactive = higher.
Legend:
Test in all cases: inhibition of tumour cell growth, NCI panel, 48 h
A549 = system: A549
CAKI-1 = system: CAKI-1
DLD-1 = system: DLD-1
EKVX = system: EKVX
HCT-116 = system: HCT-116
Hs-578T = system: Hs-578T
IGROV-1 = system: IGROV-1
K562 = system: K562
M14 = system: M14
MCF7 = system: MCF7
MDA-MB-435 = system: MDA-MB-435
MDA-N = system: MDA-N
Malme-3M = system: Malme-3M
NCI-H460 = system: NCI-H460
OVCAR-5 = system: OVCAR-5
OVCAR-8 = system: OVCAR-8
PC-3 = system: PC-3
RPMI-8226 = system: RPMI-8226
T47D = system: T47D
U-251 = system: U-251

In the case of `CC[N+]1(C)CCC(O)(c2ccc(OC)cc2)C(C(=O)c2ccc(OC)cc2)C1` (stereo not given), the GI50 (A549) is reported as 19.9 µM (inactive), the GI50 (CAKI-1) is reported as 5.9 µM (inactive) and the GI50 (DLD-1) is reported as 2.88 µM (inactive). For the same compound, the GI50 (EKVX) was 19.8 µM (inactive), the GI50 (HCT-116) was 9.27 µM (inactive) and the GI50 (Hs-578T) was 0.0368 µM (active). The GI50 (IGROV-1) was 20.5 µM (inactive), the GI50 (K562) was 2.25 µM (inactive) and the GI50 (M14) was 8.69 µM (inactive). The GI50 (MCF7) was 4.4 µM (inactive), the GI50 (MDA-MB-435) was 16.8 µM (inactive) and the GI50 (MDA-N) was 16.6 µM (inactive). The GI50 (Malme-3M) was 6.44 µM (inactive), the GI50 (NCI-H460) was 21.8 µM (inactive) and the GI50 (OVCAR-5) was 18.7 µM (inactive). For the same compound, the GI50 (OVCAR-8) was 21 µM (inactive), the GI50 (PC-3) was 17.7 µM (inactive) and the GI50 (RPMI-8226) was 1.91 µM (inactive). The GI50 (T47D) was 13.4 µM (inactive) and the GI50 (U-251) was 1.54 µM (inactive).

`Nc1ccn(C2OC(CO)C(O)C2O)c(=O)n1` (stereo not given) was tested, and the GI50 (A549) was 0.14 µM (active), the GI50 (CAKI-1) was 1.04 µM (active) and the GI50 (DLD-1) was 481 µM (inactive). For the same compound, the GI50 (EKVX) was 267 µM (inactive), the GI50 (HCT-116) was 0.207 µM (active) and the GI50 (Hs-578T) was > 481 µM (inactive). The GI50 (IGROV-1) was 313 µM (inactive), the GI50 (K562) was 14.6 µM (inactive) and the GI50 (M14) was 0.186 µM (active). The GI50 (MCF7) was 0.156 µM (active), the GI50 (MDA-MB-435) was 35.4 µM (inactive) and the GI50 (MDA-N) was 7.45 µM (inactive). The GI50 (Malme-3M) was 13.8 µM (inactive), the GI50 (NCI-H460) was 0.0885 µM (active) and the GI50 (OVCAR-5) was 21.2 µM (inactive). For the same compound, the GI50 (OVCAR-8) was 0.818 µM (active), the GI50 (PC-3) was 36.5 µM (inactive) and the GI50 (RPMI-8226) was 337 µM (inactive). For the same compound, the GI50 (T47D) was 330 µM (inactive) and the GI50 (U-251) was 8.89 µM (inactive).

With `CCN(CC)CCCNC(=O)C1COc2cc(-c3cc(=O)c4ccccc4o3)ccc2O1` (stereo not given) the GI50 (A549) was 44.1 µM (inactive), the GI50 (CAKI-1) was > 100 µM (inactive) and the GI50 (DLD-1) was 65.3 µM (inactive). For the same compound, the GI50 (EKVX) was > 100 µM (inactive), the GI50 (HCT-116) was 37.4 µM (inactive) and the GI50 (IGROV-1) was 68.1 µM (inactive). For the same compound, the GI50 (K562) was 36.6 µM (inactive), the GI50 (M14) was 22.1 µM (inactive) and the GI50 (Malme-3M) was 20.4 µM (inactive). The GI50 (NCI-H460) was > 100 µM (inactive), the GI50 (OVCAR-5) was 81.7 µM (inactive) and the GI50 (OVCAR-8) was 53.7 µM (inactive). For the same compound, the GI50 (RPMI-8226) was > 100 µM (inactive) and the GI50 (U-251) was 37.8 µM (inactive).

In the case of `CC(=O)OCc1cc(=O)n(C)c2c3c4c(cc12)c(C)cc(=O)n4CO3`, the GI50 (A549) is reported as 1.69 µM (inactive), the GI50 (CAKI-1) is reported as 1.95 µM (inactive) and the GI50 (DLD-1) is reported as 1.37 µM (inactive). The GI50 (EKVX) was 2.44 µM (inactive), the GI50 (HCT-116) was 0.367 µM (active) and the GI50 (IGROV-1) was 1.21 µM (inactive). For the same compound, the GI50 (K562) was 1.14 µM (inactive), the GI50 (MCF7) was 2.3 µM (inactive) and the GI50 (Malme-3M) was 0.906 µM (active). The GI50 (NCI-H460) was 0.52 µM (active), the GI50 (OVCAR-5) was 2.73 µM (inactive) and the GI50 (OVCAR-8) was 0.555 µM (active). For the same compound, the GI50 (RPMI-8226) was 1.51 µM (inactive) and the GI50 (U-251) was 1.23 µM (inactive).

With `O=C1OC(c2ccccc2)(c2ccccc2)c2ccc3ccc(F)cc3c21` the GI50 (A549) was 19.3 µM (inactive), the GI50 (CAKI-1) was 33.3 µM (inactive) and the GI50 (DLD-1) was > 100 µM (inactive). The GI50 (EKVX) was 53.3 µM (inactive), the GI50 (HCT-116) was 27 µM (inactive) and the GI50 (IGROV-1) was > 100 µM (inactive). The GI50 (K562) was 6.28 µM (inactive), the GI50 (M14) was > 100 µM (inactive) and the GI50 (Malme-3M) was > 100 µM (inactive). The GI50 (NCI-H460) was > 100 µM (inactive), the GI50 (OVCAR-5) was > 100 µM (inactive) and the GI50 (OVCAR-8) was > 100 µM (inactive). The GI50 (RPMI-8226) was > 100 µM (inactive) and the GI50 (U-251) was 77.1 µM (inactive).

In the case of `C1=Nc2ccccc2Cn2nncc21`, the GI50 (A549) is reported as > 100 µM (inactive), the GI50 (CAKI-1) is reported as 29.9 µM (inactive) and the GI50 (DLD-1) is reported as 57.3 µM (inactive). For the same compound, the GI50 (EKVX) was 98.2 µM (inactive), the GI50 (HCT-116) was 35.7 µM (inactive) and the GI50 (IGROV-1) was 67.5 µM (inactive). The GI50 (K562) was 35.2 µM (inactive), the GI50 (M14) was 67.3 µM (inactive) and the GI50 (Malme-3M) was 63 µM (inactive). For the same compound, the GI50 (NCI-H460) was > 100 µM (inactive), the GI50 (OVCAR-5) was > 100 µM (inactive) and the GI50 (OVCAR-8) was > 100 µM (inactive). The GI50 (RPMI-8226) was > 100 µM (inactive) and the GI50 (U-251) was 26 µM (inactive).

In the case of `CC(C)c1cccc2sc(NC(=O)C(=O)CC(=O)c3ccc(F)cc3)nc12`, the GI50 (A549) is reported as > 100 µM (inactive), the GI50 (CAKI-1) is reported as > 100 µM (inactive) and the GI50 (DLD-1) is reported as > 100 µM (inactive). For the same compound, the GI50 (EKVX) was > 100 µM (inactive), the GI50 (HCT-116) was > 100 µM (inactive) and the GI50 (IGROV-1) was > 100 µM (inactive). For the same compound, the GI50 (K562) was > 100 µM (inactive), the GI50 (M14) was > 100 µM (inactive) and the GI50 (Malme-3M) was > 100 µM (inactive). The GI50 (NCI-H460) was > 100 µM (inactive), the GI50 (OVCAR-5) was > 100 µM (inactive) and the GI50 (OVCAR-8) was > 100 µM (inactive). For the same compound, the GI50 (RPMI-8226) was > 100 µM (inactive) and the GI50 (U-251) was > 100 µM (inactive).

`CCCCC1(C2c3ccccc3Oc3ccccc32)C(=O)N(c2ccccc2)N(c2ccccc2)C1=O` was tested, and the GI50 (A549) was 39.1 µM (inactive), the GI50 (CAKI-1) was 11.6 µM (inactive) and the GI50 (DLD-1) was 25.8 µM (inactive). For the same compound, the GI50 (EKVX) was > 100 µM (inactive), the GI50 (HCT-116) was 41.3 µM (inactive) and the GI50 (IGROV-1) was > 72.3 µM (inactive). The GI50 (K562) was 18.9 µM (inactive), the GI50 (MCF7) was 55 µM (inactive) and the GI50 (Malme-3M) was > 100 µM (inactive). The GI50 (NCI-H460) was 47.8 µM (inactive), the GI50 (OVCAR-5) was > 100 µM (inactive) and the GI50 (OVCAR-8) was > 100 µM (inactive). The GI50 (RPMI-8226) was 27.7 µM (inactive) and the GI50 (U-251) was 31.3 µM (inactive).

In the case of `CC(C)(C)OC(=O)NC(Cc1ccccc1)C(=S)N1CCCC1` (stereo not given), the GI50 (A549) is reported as > 100 µM (inactive), the GI50 (CAKI-1) is reported as > 50.9 µM (inactive) and the GI50 (DLD-1) is reported as 62.4 µM (inactive). For the same compound, the GI50 (EKVX) was 52.6 µM (inactive), the GI50 (HCT-116) was > 100 µM (inactive) and the GI50 (IGROV-1) was > 100 µM (inactive). The GI50 (K562) was 78.3 µM (inactive), the GI50 (M14) was > 100 µM (inactive) and the GI50 (Malme-3M) was > 100 µM (inactive). The GI50 (NCI-H460) was > 93.8 µM (inactive), the GI50 (OVCAR-5) was > 100 µM (inactive) and the GI50 (OVCAR-8) was > 100 µM (inactive). For the same compound, the GI50 (RPMI-8226) was 31.1 µM (inactive) and the GI50 (U-251) was > 100 µM (inactive).

With `C=C(C=O)[C@@H]1C2OC(=O)C(=C)[C@@H]2CC(O)[C@@]1(C)CC` (stereo not given in full) the GI50 (A549) was 32.8 µM (inactive), the GI50 (CAKI-1) was 9.38 µM (inactive) and the GI50 (DLD-1) was 2.75 µM (inactive). For the same compound, the GI50 (EKVX) was 18.2 µM (inactive), the GI50 (HCT-116) was 3.78 µM (inactive) and the GI50 (IGROV-1) was 10.7 µM (inactive). For the same compound, the GI50 (K562) was 3.27 µM (inactive), the GI50 (M14) was 4.83 µM (inactive) and the GI50 (Malme-3M) was 6.21 µM (inactive). The GI50 (NCI-H460) was 21.2 µM (inactive), the GI50 (OVCAR-5) was 17.8 µM (inactive) and the GI50 (OVCAR-8) was 4.37 µM (inactive). For the same compound, the GI50 (RPMI-8226) was 2.93 µM (inactive) and the GI50 (U-251) was 11.7 µM (inactive).

`NCCCNCCSP(=O)(O)O` [AMIFOSTINE] was tested, and the GI50 (A549) was > 519 µM (inactive), the GI50 (CAKI-1) was > 678 µM (inactive) and the GI50 (DLD-1) was > 750 µM (inactive). The GI50 (EKVX) was > 750 µM (inactive), the GI50 (HCT-116) was 743 µM (inactive) and the GI50 (IGROV-1) was > 750 µM (inactive). For the same compound, the GI50 (K562) was > 750 µM (inactive), the GI50 (MCF7) was > 750 µM (inactive) and the GI50 (Malme-3M) was > 335 µM (inactive). The GI50 (NCI-H460) was > 750 µM (inactive), the GI50 (OVCAR-5) was > 750 µM (inactive) and the GI50 (OVCAR-8) was > 511 µM (inactive). For the same compound, the GI50 (RPMI-8226) was > 452 µM (inactive) and the GI50 (U-251) was > 750 µM (inactive).

`Cn1c(/C=C/CO)c(CO)c2c1C(=O)C=C(N1CC1)C2=O` [APAZIQUONE] was tested, and the GI50 (A549) was < 0.01 µM (active), the GI50 (CAKI-1) was < 0.01 µM (active) and the GI50 (DLD-1) was 0.0152 µM (active). For the same compound, the GI50 (EKVX) was 0.0463 µM (active), the GI50 (HCT-116) was 0.0109 µM (active) and the GI50 (IGROV-1) was 0.0244 µM (active). The GI50 (K562) was 0.0195 µM (active), the GI50 (MCF7) was < 0.01 µM (active) and the GI50 (Malme-3M) was < 0.01 µM (active). The GI50 (NCI-H460) was < 0.01 µM (active), the GI50 (OVCAR-5) was < 0.0122 µM (active) and the GI50 (OVCAR-8) was < 0.0156 µM (active). For the same compound, the GI50 (RPMI-8226) was 0.0172 µM (active) and the GI50 (U-251) was < 0.01 µM (active).

Source: ChEMBL document CHEMBL1201862, “PubChem BioAssay data set” (2004)
